In one test the target is T1, PKMYT1 (Homo sapiens, UniProt Q99640).
T1 construct: PKMYT1 (93 kD, full length, N-terminal GST tag from Signal Chem); GST (N); purchased Signal Chem
T1 sequence (Q99640 1-499): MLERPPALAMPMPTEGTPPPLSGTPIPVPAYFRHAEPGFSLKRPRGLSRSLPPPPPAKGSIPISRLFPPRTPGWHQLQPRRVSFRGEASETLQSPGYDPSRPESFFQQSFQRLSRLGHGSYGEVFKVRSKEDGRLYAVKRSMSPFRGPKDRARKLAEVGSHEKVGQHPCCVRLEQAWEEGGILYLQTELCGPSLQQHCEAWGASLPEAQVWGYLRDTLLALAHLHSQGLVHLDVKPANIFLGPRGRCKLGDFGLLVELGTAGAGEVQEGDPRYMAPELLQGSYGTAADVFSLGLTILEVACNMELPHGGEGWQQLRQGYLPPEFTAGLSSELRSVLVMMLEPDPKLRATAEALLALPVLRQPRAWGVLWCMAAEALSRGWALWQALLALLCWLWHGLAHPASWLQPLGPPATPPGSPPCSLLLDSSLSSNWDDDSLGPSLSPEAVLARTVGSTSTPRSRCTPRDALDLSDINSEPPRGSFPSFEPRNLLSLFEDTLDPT
In words: ADP-Glo PKMYT1 ATP-depletion assay. The following applies: 50 nM PKMYT1, 13.3 nM CDK1, read-out: Biochemical IC50. Here is the method:
(§1) Biochemical IC50 values were determined via ADP-Glo™ assay. Cellular IC50 values were determined via AlphaLISA assay.
ADP-Glo™ PKMYT1 ATP-depletion assay. The activity of PKMYT1 is measured using a luciferase-luciferin based ATP detection reaction to quantify ATP depletion resulting from kinase-catalyzed phosphoryl transfer to CDK1 or autophosphorylation of PKMYT1. The ADP generated as a byproduct of the reaction is converted to ATP and used to drive a luciferase reaction. Test compounds were dissolved in DMSO and dispensed into Corning 3824 384-well plates prior to the experiment such that the final DMSO concentration was <1%. To the compounds was added 3 μL of PKMYT1 (93 kD, full length, N-terminal GST tag from Signal Chem). The reaction was started by the addition of 2 μL of CDK1 (58 kDa, full length, N-terminal GST tag from Signal Chem) and ATP in assay buffer (50 mM Hepes, 40 mM NaCl, 10 mM MgCl2, 1 mM DTT, 0.1 mg/mL BSA, 2.5 mM MnCl2). Final assay concentrations were 50 nM PKMYT1, 13.3 nM CDK1, and 88 µM ATP. Plates were centrifuged for 1 minute at 1000 RPM and incubated at RT for 120 minutes. After the incubation period, ADP-Glo™ reagent was added and the plates were incubated for another 40 minutes before finally adding the kinase detection reagent. 30 minutes after the addition, plates were placed on a PHERAstar® plate reader and read using the Luminescence Protocol, integration time at 0.5 seconds.

The test system of test [1] is phosphorylation of CDK1 at Thr14 in HCC1806 cells. The test can be described thus: Cell lysate AlphaLISA assay measuring inhibition of phosphorylation of CDK1 Thr14. The format is cell-based. The following applies: read-out: Cellular IC50. Here is the method: as §1
Cell lysate AlphaLISA® assay measuring inhibition of phosphorylation of CDK1 Thr14. Inhibition of phosphorylation of CDK1 at Thr14 was determined using AlphaLISA® SureFire® Ultra™ Kit from Perkin Elmer (ALSU-PCDK1-A10K). HCC1806 cells were seeded at 2K cells per well (50 μl/well) in 384-well plates (Corning 3570) and stored overnight at 37° C. and 5% CO2. The following day, the compounds dissolved in DMSO were introduced to the cells and incubated for 4 hours at 37° C. and 5% CO2. The cells were then washed with PBS using Blue®Washer and 10 μl of lysis buffer containing protease inhibitor was added. The plate was placed on an orbital shaker (at 4° C.) for 30 minutes and stored overnight at −80° C. for complete lysing. The next day, the plates were thawed at room temperature for at least 30 min. Reagents were prepared in a dimmed light setting (<100 lumens). The assay was run by first adding 5 μl of the acceptor mix (reaction buffer 1: reaction buffer 2: activation buffer: acceptor beads 47:47:4:2), covering the plate with foil, shaking for 2 minutes and incubating at RT for 60 minutes. The donor mix (dilution buffer: donor beads 47:3) was then added at 5 μl per well, placed on the shaker for 2 minutes and incubated at RT for 60 minutes before reading the plates on a PHERAstar® plate reader. The results were normalized to DMSO (0% Inhibition) and 3 μM of reference compound.
In general terms: Bead proximity is the source of the signal in Alpha formats.

Like-named read-outs stand apart in the source and are kept apart here.

As for `Cc1ccc(O)c(C)c1-c1c(N)c(C(N)=O)nc2ccc(C(F)(F)F)cc12` (single isomer, unassigned) [Compound 41, (P)-3-amino-4-(3-hydroxy-2,6-dimethylphenyl)-6-(trifluoromethyl)quinoline-2-carboxamide], the values for the IC50 (on PKMYT1; in test [1] (4 hours)) were at least 5000 nM and at least 5 µM, respectively.

Regarding `Cc1ccc(O)c(C)c1-c1c(N)c(C#N)cc2nccnc12` [Compound 298], the IC50 (commonly the point on the concentration scale where inhibition reaches its midpoint) at PKMYT1 was 1000 to 5000 nM; in test [1] (Homo sapiens, HCC1806, 4 h), at least 5 µM.

In the case of `Cc1c(O)cc(Cl)cc1-c1c(N)c(C(N)=O)nc2cccnc12` (atropisomer, axis not shown) [Compound 289], the IC50 on PKMYT1 is 1000 to 5000 nM; in test [1] (4 hours) it was at least 5 µM.

Regarding `COc1nc2cc(C(N)=O)c(N)c(-c3cccc(O)c3C)c2nc1C` [Compound 172], the IC50 lay in the range of 50 to 500 nM at PKMYT1 and 0.05 to 0.5 µM in test [1] (4 hours).

Consider `Cc1cnc2c(-c3c(C)ccc(O)c3C)c(N)c(C(N)=O)cc2n1` (atropisomer, axis not shown) [Compound 223], for which the values for the IC50 (on PKMYT1; in test [1] (4 hours)) were at least 5000 nM and at least 5 µM, respectively.

For the molecule `COc1cc(-c2c(N)c(C(N)=O)nc3cccnc23)cnc1C` [Compound 238], the IC50 is 1000 to 5000 nM on PKMYT1 and at least 5 µM in test [1] (Homo sapiens, HCC1806, 4 h).

As for `Cc1ncncc1-c1c(N)c(C(N)=O)nc2cccnc12` [Compound 232], the IC50 at PKMYT1 was 1000 to 5000 nM; in test [1] (Homo sapiens, HCC1806, 4 h), at least 5 µM.

For the molecule `Cc1c(O)cccc1-c1c(N)c(C(N)=O)nc2nccc(O)c12` [Compound 297], the IC50 at PKMYT1 was at least 5000 nM; in test [1] (Homo sapiens, HCC1806, 4 h), at least 5 µM.

Regarding `COc1cnc(F)c(-c2c(N)c(C(N)=O)nc3cccnc23)c1` [Compound 229], the IC50 on PKMYT1 is 1000 to 5000 nM; in test [1] (Homo sapiens, HCC1806, 4 h) it was at least 5 µM.

As to `Cc1ccc2[nH]nc(F)c2c1-c1c(N)c(C(N)=O)cc2nccnc12` [Compound 176], the IC50 at PKMYT1 is 500 to 1000 nM; in test [1] (4 hours), at least 5 µM.

Consider `Cc1cnc2c(-c3c(C)ccc(O)c3C)c(N)c(C(N)=O)cc2c1` (atropisomer, axis not shown) [Compound 213], for which the IC50 on PKMYT1 was below 50 nM; in test [1] (Homo sapiens, HCC1806, 4 h), 0.05 to 0.5 µM.

On to `Cc1ccc(O)c(C)c1-c1c(N)c(C(N)=O)nc2c(C)cccc12` (single isomer, unassigned) [Compound 32], for which the IC50 on PKMYT1 is at least 5000 nM; in test [1] (Homo sapiens, HCC1806, 4 h) it was at least 5 µM.

Regarding `Cc1ccc(O)c(C)c1-c1c(N)c(C(N)=O)cc2cc(Cl)cnc12` (atropisomer, axis not shown) [Compound 235], the figures for the IC50 (at PKMYT1; in test [1] (4 hours)) were 1000 to 5000 nM and at least 5 µM, respectively.

In the case of `NC(=O)c1cc2nccnc2c(-c2cccc3sncc23)c1N` [Compound 214], the IC50 on PKMYT1 is 500 to 1000 nM; in test [1] (Homo sapiens, HCC1806, 4 h), at least 5 µM.

`Cc1n[nH]c2cccc(-c3cc(C(N)=O)cc4nccnc34)c12` [Compound 72, 8-(3-Methyl-1H-indazol-4-yl)quinoxaline-6-carboxamide]: the IC50 at PKMYT1 is at least 5000 nM; in test [1] (Homo sapiens, HCC1806, 4 h), at least 5 µM.

For the molecule `Cc1ccc(O)c(C)c1-c1c(N)c(C(N)=O)cc2cccnc12` [Compound 64, 7-Amino-8-(3-hydroxy-2,6-dimethylphenyl)quinoline-6-carboxamide], the IC50 at PKMYT1 lay within 50 to 500 nM; in test [1] (Homo sapiens, HCC1806, 4 h) it was 0.05 to 0.5 µM.

Turning to `Cc1cnncc1-c1c(N)c(C(N)=O)nc2cccnc12` [Compound 257], the IC50 on PKMYT1 is at least 5000 nM; in test [1] (Homo sapiens, HCC1806, 4 h), at least 5 µM.

For `NC(=O)c1cc2nccnc2c(-c2cccc3[nH]ncc23)c1N` [Compound 108, 7-Amino-8-(1H-indazol-4-yl)quinoxaline-6-carboxamide], the IC50 on PKMYT1 lay within 50 to 500 nM; in test [1] (Homo sapiens, HCC1806, 4 h), 1 to 5 µM.

For the molecule `COc1ccnc2c(-c3cccc(O)c3C)c(N)c(C(N)=O)cc12` [Compound 318], the IC50 on PKMYT1 is below 50 nM; in test [1] (4 hours) it was 0.05 to 0.5 µM.

On to `NC(=O)c1nc2cccnc2c(-c2cnccc2C(F)(F)F)c1N` [Compound 259], for which the IC50 at PKMYT1 is 500 to 1000 nM; in test [1] (Homo sapiens, HCC1806, 4 h) it was at least 5 µM.

On to `Cc1ccc(O)c(C)c1-c1c(N)c(C(N)=O)nc2ccc(Cl)cc12` (single isomer, unassigned) [Compound 53, (M)-3-Amino-6-chloro-4-(3-hydroxy-2,6-dimethylphenyl)quinoline-2-carboxamide], for which the IC50 on PKMYT1 fell in the range of 50 to 500 nM; in test [1] (4 hours) it was 1 to 5 µM.

With `Cc1cccc(-c2c(N)c(C(N)=O)cc3cc(Cl)cnc23)c1C` (atropisomer, axis not shown) [Compound 180], the IC50 at PKMYT1 was in the range of 50 to 500 nM; in test [1] (Homo sapiens, HCC1806, 4 h), 1 to 5 µM.

`Cc1c(O)cccc1-c1c(N)c(C(N)=O)nc2ncccc12` [Compound 237]: the IC50 on PKMYT1 was 50 to 500 nM; in test [1] (Homo sapiens, HCC1806, 4 h), 1 to 5 µM.

In the case of `COc1ccc2c(-c3c(C)ccc(O)c3C)c(N)c(C(N)=O)nc2c1` [Compound 47, 3-Amino-4-(3-hydroxy-2,6-dimethylphenyl)-7-methoxyquinoline-2-carboxamide], the IC50 at PKMYT1 was in the range of 1000 to 5000 nM; in test [1] (Homo sapiens, HCC1806, 4 h) it was 1 to 5 µM.

On to `Cc1c(O)cc(O)cc1-c1c(N)c(C(N)=O)cc2nccnc12` [Compound 331], for which the IC50 is 50 to 500 nM on PKMYT1 and at least 5 µM in test [1] (Homo sapiens, HCC1806, 4 h).

As for `Cc1ccc(O)c(C)c1-c1c(N)c(C(N)=O)cc2nccnc12` (single isomer, unassigned) [Compound 83, (P)-7-Amino-8-(3-hydroxy-2,6-dimethylphenyl)quinoxaline-6-carboxamide], the results for the IC50 (on PKMYT1; in test [1] (4 hours)) were below 50 nM and 0.05 to 0.5 µM, respectively.

Turning to `Cc1cnc2cc(C(N)=O)c(N)c(-c3c(C)ccc(O)c3C)c2n1` [Compound 156], the IC50 on PKMYT1 is below 50 nM; in test [1] (4 hours) it was 0.05 to 0.5 µM.

Take `Cc1ccc(-c2c(N)c(C(N)=O)nc3cccnc23)c(C)c1O` (atropisomer, axis not shown) [Compound 288]: the IC50 is below 50 nM at PKMYT1 and 0.05 to 0.5 µM in test [1] (4 hours).

For `Cc1ccc(O)c(C)c1-c1c(N)c(C(N)=O)nc2ccc(C(F)(F)F)cc12` (single isomer, unassigned) [Compound 40, (M)-3-Amino-4-(3-hydroxy-2,6-dimethylphenyl)-6-(trifluoromethyl)quinoline-2-carboxamide], the results for the IC50 (at PKMYT1; in test [1] (4 hours)) were 500 to 1000 nM and 1 to 5 µM, respectively.

For the molecule `NC(=O)c1cc2nccnc2c(-c2cccc(O)c2Cl)c1N` (single isomer, unassigned) [Compound 106, (M)-7-amino-8-(2-chloro-3-hydroxyphenyl)quinoxaline-6-carboxamide], the IC50 at PKMYT1 was at least 5000 nM; in test [1] (4 hours), at least 5 µM.

In the case of `Cc1c(CO)cccc1-c1c(N)c(C(N)=O)nc2cccnc12` [Compound 249], the IC50 on PKMYT1 was at least 5000 nM; in test [1] (Homo sapiens, HCC1806, 4 h), at least 5 µM.

For the molecule `NC(=O)c1cc2nccnc2c(-c2ccc3ocnc3c2)c1N` [Compound 178], the IC50 was at least 5000 nM at PKMYT1 and at least 5 µM in test [1] (Homo sapiens, HCC1806, 4 h).

Regarding `COc1ccc2nc(C(N)=O)c(N)c(-c3cncc(C(F)F)c3C)c2n1` [Compound 314], the IC50 at PKMYT1 was 500 to 1000 nM; in test [1] (Homo sapiens, HCC1806, 4 h), at least 5 µM.

`Cc1ccc(O)c(C)c1-c1c(N)c(C(N)=O)nc2nccnc12` [Compound 126, 7-amino-8-(3-hydroxy-2,6-dimethylphenyl)pyrido[2,3-b]pyrazine-6-carboxamide]: the IC50 at PKMYT1 is below 50 nM; in test [1] (Homo sapiens, HCC1806, 4 h), 0.05 to 0.5 µM.

As for `Cc1c(-c2c(N)c(C(N)=O)cc3nccnc23)ccc2oc(N)nc12` [Compound 197], the IC50 on PKMYT1 is at least 5000 nM; in test [1] (Homo sapiens, HCC1806, 4 h), at least 5 µM.
